Our source for the IC50 values is US9133168B2, “Pyrimidine derivatives, preparation thereof, and pharmaceutical use thereof as akt(pkb) phosphorylation inhibitors” (SANOFI, priority 2010, dated 2015).

Each structure is given as a SMILES string.

In the first test the test system is AKT protein phosphorylated on serine 473 (P-AKT-S473) in PC3 human prostate carcinoma cells. Put plainly: pAKT expression in PC3 human prostate carcinoma cells, MSD Multi-spot Biomarker detection (Test A). In kind it is cell-based. Conditions: Homo sapiens, PC-3, PC3 cells, 1 to 2 h incubation, P-AKT-S473, absolute IC50, mean of two independent experiments. As for the experimental part: The inhibitory activity of the molecules on AKT phosphorylation is measured using the MSD Multi-spot Biomarker detection technique from Meso Scale Discovery also described below. […] The primary antibody specific for […]) is coated on to an electrode in each well of the 96-well plates of the MSD kit: after the addition of a protein lysate to each well, the signal is visualized by adding a secondary detection antibody labeled with an electrochemiluminescent compound. The procedure followed is the one described in the kit. […] On day 2, the cells are incubated in the presence or absence of the test products for 1 to 2 h at 37° C. in the presence of 5% CO2. The molecules, diluted in dimethyl sulfoxide (DMSO Sigma #D2650), are added from a 20-times concentrated stock solution, the final percentage of DMSO being 0.1%. The molecules are tested either at a single concentration of less than or equal to 10 μM, or at increasing concentrations in a range that can extend from less than 1 nM to 10 μM. After this incubation, the cells are lysed for the preparation of the proteins. […] At this stage, the plates containing the lysates can be frozen at -20° C. or at -80° C. The wells of the 96 well plates of the MSD kit are saturated for 1 h at ambient temperature with the blocking solution of the MSD kit. Four washes are carried out with 150 μl of Tris Wash Buffer of the MSD kit. The lysates previously prepared are transferred into the 96-well multi-spot plates of the MSD kit and incubated for 1 h at ambient temperature, with shaking. Four washes are carried out with 150 μl of Tris Wash Buffer of the MSD kit. 25 μl of the MSD sulfo-tag detection antibody solution are added to the wells and incubated for 1 h at ambient temperature, with shaking. Four washes are carried out with 150 μl of Tris Wash Buffer of the MSD kit. 150 μl of Read Buffer of the MSD kit are added to the wells and the plates are read immediately on the S12400 instrument from Meso Scale Discovery. The instrument measures a signal for each well. Wells without cells and containing the lysis buffer serve to determine the background noise that will be subtracted from all the measurements (min). The wells containing cells in the absence of product and in the presence of 0.1% DMSO are considered to be the 100% signal (max). The percentage inhibition is calculated for each concentration of product tested, according to the following formula: (1-((test-min)/(max-min)))×100. […] Two independent experiments make it possible to calculate the mean of the IC50 values.
For `CC(C)C1Cc2ccccc2N1C(=O)Cc1nc(N2CCOCC2)cc(=O)[nH]1` (single isomer, unassigned; (-)) [Example 39c, (−)-2-[2-(2-isopropyl-2,3-dihydroindol-1-yl)-2-oxoethyl]-6-morpholin-4-yl-3H-pyrimidin-4-one], half-maximal inhibition (IC50) was put at 4 nM. Compound `CC(F)(C(=O)N1CCc2c(F)cccc21)c1nc(N2CCOCC2)cc(=O)[nH]1` (single isomer, unassigned; (-)) [Example 44c, (−)-2-[2-fluoro-1-(4-fluoro-2,3-dihydro-1H-indol-1-yl)-1-oxopropan-2-yl]-6-(morpholin-4-yl)pyrimidin-4(3H)-one] returned an IC50 of 140 nM. As for `O=C(Cc1nc(N2CCOCC2)c(F)c(=O)[nH]1)N1CCc2c(F)cccc21` [Example 1a, 5-fluoro-2-[2-(4-fluoro-2,3-dihydro-1H-indol-1-yl)-2-oxoethyl]-6-(morpholin-4-yl)pyrimidin-4(3H)-one], it took 22 nM to reach half-maximal inhibition (IC50). Compared with the last compound, the IC50 is about 6.4-fold lower. With `O=C(Cc1nc(N2CCOCC2)cc(=O)[nH]1)N1CC2(CC2)c2ccccc21` [Example 1d, 6-(morpholin-4-yl)-2-[2-oxo-2-(spiro[cyclopropan-1,3′-indol]-1′(2′H)-yl)ethyl]pyrimidin-4(3H)-one], half-maximal inhibition (IC50) required 26 nM. For `C[C@H]1Cc2ccccc2N1C(=O)Cc1nc(N2CCOCC2)cc(=S)[nH]1` [Example 1e, 1-((S)-2-methyl-2,3-dihydroindol-1-yl)-2-(4-morpholin-4-yl-6-thioxo-1,6-dihydropyrimidin-2-yl)ethanone], the IC50 was 22 nM.

Compound `CC(C(=O)N1CCc2c(F)cccc21)c1nc(N2CCOCC2)c(F)c(=O)n1C` (stereo not drawn) [Example 2a, 5-fluoro-2-[1-(4-fluoro-2,3-dihydro-1H-indol-1-yl)-1-oxopropan-2-yl]-3-methyl-6-(morpholin-4-yl)pyrimidin-4(3H)-one] displayed an IC50 of 938 nM. For the compound `O=C(Cc1nc(N2CCOCC2)cc(=O)[nH]1)N1CCc2c(-c3ccccc3)cccc21` [Example 2d, 6-(morpholin-4-yl)-2-[2-oxo-2-(4-phenyl-2,3-dihydro-1H-indol-1-yl)ethyl]pyrimidin-4(3H)-one], half-maximal inhibition (IC50) required 24 nM. `C[C@H]1Cc2ccccc2N1C(=S)Cc1nc(N2CCOCC2)cc(=S)[nH]1` [Example 2e, 2-[2-((S)-2-methyl-2,3-dihydroindol-1-yl)-2-thioxoethyl]-6-morpholin-4-yl-3H-pyrimidine-4-thione] registered an IC50 of 4 nM. `Cn1c(CC(=O)N2CCc3c(F)cccc32)nc(N2CCOCC2)c(F)c1=O` [Example 3a, 5-fluoro-2-[2-(4-fluoro-2,3-dihydro-1H-indol-1-yl)-2-oxoethyl]-3-methyl-6-(morpholin-4-yl)pyrimidin-4(3H)-one] returned an IC50 of 158 nM. This IC50 lies about 40-fold higher than the previous one.

The compound `O=C(Cc1nc(N2CCOCC2)cc(=O)[nH]1)N1CCc2c(OC(F)(F)F)cccc21` [Example 3d, 6-(morpholin-4-yl)-2-{2-oxo-2-[4-(trifluoromethoxy)-2,3-dihydro-1H-indol-1-yl]ethyl}pyrimidin-4(3H)-one] displayed an IC50 of 54 nM.

`C[C@@H]1Cc2ccccc2N1C(=O)Cc1nc(N2CCOCC2)cc(=S)[nH]1` [Example 3e, 1-((R)-2-methyl-2,3-dihydroindol-1-yl)-2-(4-morpholin-4-yl-6-thioxo-1,6-dihydropyrimidin-2-yl)ethanone]: the midpoint of inhibition, the IC50, lay at 8 nM. This IC50 lies about 6.8-fold lower than the previous one.

The compound `C[C@@H]1Cc2ccccc2N1C(=O)Cc1nc(N2CCOCC2)c(F)c(=O)[nH]1` [Example 4a, 5-fluoro-2-{2-[(2R)-2-methyl-2,3-dihydro-1H-indol-1-yl]-2-oxoethyl}-6-(morpholin-4-yl)pyrimidin-4(3H)-one] yielded an IC50 of 503 nM. The compound `Cn1c(CC(=O)N2CC(C)(C)c3c(Cl)cccc32)nc(N2CCOCC2)cc1=O` [Example 4c, 2-[2-(4-chloro-3,3-dimethyl-2,3-dihydro-1H-indol-1-yl)-2-oxoethyl]-3-methyl-6-(morpholin-4-yl)pyrimidin-4(3H)-one] returned an IC50 of 35 nM. In turn, `Cn1c(CC(=O)N2CCc3c2cccc3C(F)(F)F)nc(N2CCOCC2)cc1=O` [Example 4d, 3-methyl-6-(morpholin-4-yl)-2-{2-oxo-2-[4-(trifluoromethyl)-2,3-dihydro-1H-indol-1-yl]ethyl}pyrimidin-4(3H)-one] came in with an IC50 of 63 nM. Compound `C[C@H]1Cc2ccccc2N1C(=O)Cc1nc(N2CCOCC2)cc(=S)n1C` [Example 4e, 1-((S)-2-methyl-2,3-dihydroindol-1-yl)-2-(1-methyl-4-morpholin-4-yl-6-thioxo-1,6-dihydropyrimidin-2-yl)ethanone] came in with an IC50 of 41 nM. Same read-out and setting: the figure for `C[C@H]1Cc2ccccc2N1C(=O)Cc1nc(N2CCOCC2)c(F)c(=O)[nH]1` [Example 5a, 5-fluoro-2-{2-[(2S)-2-methyl-2,3-dihydro-1H-indol-1-yl]-2-oxoethyl}-6-(morpholin-4-yl)pyrimidin-4(3H)-one] is 15 nM.

Staying with this test, now noted: PC3 cells, 1 to 2 h incubation, P-AKT-S473, absolute IC50, mean of two independent experiments.
On to `CC1Cc2c(OC(F)F)cccc2N1C(=O)Cc1nc(N2CCOCC2)cc(=O)[nH]1` (single isomer, unassigned; (-)) [Example 30d, (−)-2-{2-[4-(difluoromethoxy)-2-methyl-2,3-dihydro-1H-indol-1-yl]-2-oxoethyl}-6-(morpholin-4-yl)pyrimidin-4(3H)-one], for which the IC50 stood at 8 nM. On to `CC1Cc2c(Br)cccc2N1C(=O)Cc1nc(N2CCOCC2)cc(=O)n1C` (single isomer, unassigned; (-)) [Example 32c, (−)-2-{2-[4-bromo-2-methyl-2,3-dihydro-1H-indol-1-yl]-2-oxoethyl}-3-methyl-6-(morpholin-4-yl)pyrimidin-4(3H)-one], for which the IC50 amounted to 14 nM. Same read-out and setting: the figure for `CC1Cc2c(OC(F)F)cccc2N1C(=O)Cc1nc(N2CCOCC2)cc(=O)n1C` (single isomer, unassigned; (-)) [Example 32d, (−)-2-{2-[4-(difluoromethoxy)-2-methyl-2,3-dihydro-1H-indol-1-yl]-2-oxoethyl}-3-methyl-6-(morpholin-4-yl)pyrimidin-4(3H)-one] is 60 nM; for `CC1Cc2c(Cl)cccc2N1C(=O)Cc1nc(N2CCOCC2)cc(=O)n1C` (single isomer, unassigned; (-)) [Example 34c, (−)-2-{2-[4-chloro-2-methyl-2,3-dihydro-1H-indol-1-yl]-2-oxoethyl}-3-methyl-6-(morpholin-4-yl)pyrimidin-4(3H)-one] it is 242 nM; for `O=C(Cc1nc(N2CCOCC2)cc(=O)[nH]1)N1c2ccccc2CC1C1CC1` (single isomer, unassigned; (-)) [Example 35d, (−)-2-[2-(2-cyclopropyl-2,3-dihydroindol-1-yl)-2-oxoethyl]-6-morpholin-4-yl-3H-pyrimidin-4-one] it is 5 nM. Consider `CC1Cc2c(cccc2C(F)(F)F)N1C(=O)Cc1nc(N2CCOCC2)cc(=O)[nH]1` (single isomer, unassigned; (-)) [Example 37d, (−)-2-{2-[2-methyl-4-(trifluoromethyl)-2,3-dihydro-1H-indol-1-yl]-2-oxoethyl}-6-(morpholin-4-yl)pyrimidin-4(3H)-one], for which inhibition was half-maximal at 2 nM (IC50).

The compound `CC1Cc2c(ccc(F)c2Cl)N1C(=O)Cc1nc(N2CCOCC2)cc(=O)[nH]1` (single isomer, unassigned; (-)) [Example 38c, (−)-2-{2-[4-chloro-5-fluoro-2-methyl-2,3-dihydro-1H-indol-1-yl]-2-oxoethyl}-6-(morpholin-4-yl)pyrimidin-4(3H)-one] showed an IC50 of 1 nM. Same read-out and setting: the figure for `CCC1Cc2ccccc2N1C(=O)Cc1nc(N2CCOCC2)cc(=O)[nH]1` (single isomer, unassigned; (-)) [Example 43c, (−)-2-[2-(2-ethyl-2,3-dihydroindol-1-yl)-2-oxoethyl]-6-morpholin-4-yl-3H-pyrimidin-4-one] is 14 nM. On the same count and under the same terms, the figure for `CC1CN(c2cc(=O)[nH]c(CC(=O)Nc3ccc(F)cc3)n2)CCO1` (stereo not drawn) [Example 1b, N-(4-fluorophenyl)-2-[4-(2-methylmorpholin-4-yl)-6-oxo-1,6-dihydropyrimidin-2-yl]acetamide] is 26 nM.

`CC1Cc2c(Cl)cccc2N1C(=O)Cc1nc(N2CCOCC2)cc(=O)[nH]1` (stereo not drawn) [Example 1c, 2-[2-(4-chloro-2-methyl-2,3-dihydro-1H-indol-1-yl)-2-oxoethyl]-6-(morpholin-4-yl)pyrimidin-4(3H)-one] returned an IC50 of 5 nM.

Compound `O=C(Cc1nc(N2CCOC(CF)C2)cc(=O)[nH]1)Nc1ccc(F)cc1` (stereo not drawn) [Example 3b, 2-[4-(2-fluoromethylmorpholin-4-yl)-6-oxo-1,6-dihydropyrimidin-2-yl]-N-(4-fluorophenyl)acetamide] yielded an IC50 of 271 nM.

As a reminder, the IC50 is the concentration that inhibits the measured activity by half. A higher IC50 goes with weaker potency.
